The target in the assay is T1, human cloned 5-HT6 receptors (Homo sapiens, UniProt P50406).
T1 construct: expressed in transfected cells; host or cells: HeLa cells
Type of assay: binding. To be noted: for % Inhibition / inhibition at 1 µM: displacement of [3H]-LSD; for Ki: [3H]-LSD 3.0 nM, Hela cell membranes, read-out: 5-HT6 Binding Ki. As for the experimental part: This operation is repeated.
The reaction is allowed to proceed in the dark for 120 min at room temperature, at which time, the bound ligand-receptor complex is filtered off on a 96 well unifilter with a Packard Filtermate® 196 Harvester. The bound complex caught on the filter disk is allowed to air dry and the radioactivity is measured in a Packard TopCount® equipped with six photomultiplier detectors, after the addition of 40.0 μl Microscint®-20 scintillant to each shallow well. The unifilter plate is heat-sealed and counted in a PackardTopCount® with a tritium efficiency of 31.0%.
Specific binding to the 5-HT6 receptor is defined as the total radioactivity bound less the amount bound in the presence of 10.0 μM unlabeled methiothepin. Binding in the presence of varying concentrations of test compound is expressed as a percentage of specific binding in the absence of test compound. The results are plotted as logit % bound versus log concentration of test compound. Nonlinear regression analysis of data points with a computer assisted program Prism® yields both the IC50 and the Ki values of test compounds with 95% confidence limits.
The amount of displacement by the test compound is given in percent (%) inhibition and is derived from the following equation: [formula] where B0 is the amount of CPM bound in the presence of the testing agent. NSB represents the CPM bound in the presence of a saturating concentration of a displacer and TB represents the total amount of CPM bound at zero (0) concentration of test compound.
Alternatively, a linear regression line of decline of data points is plotted, from which the IC50 value can be read off and the Ki value determined by solving the following equation: [formula] where L is the concentration of the radioactive ligand used and KD is the dissociation constant of the ligand for the receptor, both expressed in nM.
On the technique in general: Loss of bound radioactivity is the signal in a displacement assay; it reports binding, not function.

Counter-ions that a name gives are not always drawn. Like-named read-outs stand apart in the source and are kept apart here.

T1 sequence (P50406 whole entry): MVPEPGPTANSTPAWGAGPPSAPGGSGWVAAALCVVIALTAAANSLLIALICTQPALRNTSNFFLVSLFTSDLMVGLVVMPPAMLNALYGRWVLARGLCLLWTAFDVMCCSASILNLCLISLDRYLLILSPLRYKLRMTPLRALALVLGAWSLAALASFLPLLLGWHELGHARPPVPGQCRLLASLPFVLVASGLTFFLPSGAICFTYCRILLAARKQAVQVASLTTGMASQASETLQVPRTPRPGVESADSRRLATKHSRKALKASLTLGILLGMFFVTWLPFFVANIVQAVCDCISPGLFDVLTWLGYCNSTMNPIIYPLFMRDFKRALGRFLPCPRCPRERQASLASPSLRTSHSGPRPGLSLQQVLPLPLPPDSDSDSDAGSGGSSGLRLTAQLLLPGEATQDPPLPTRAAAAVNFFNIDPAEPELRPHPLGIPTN

Take “2-[3-(2-chloro-phenyl)-1-(1,2-diphenyl-1H-indol-3-yl)-allylidene]hydrazinecarboximidamide [Example 88]”: the “% Inhibition” value (test compound dose 1000 nM) amounted to 37.5%.

On to “2-{[2-(3-thienyl)-1H-indol-3-yl]-ethylidene}hydrazinecarboximidamide [Example 139]”, for which, where the note is “test compound dose 100 nM”, the “% Inhibition” value was 60.1%.

`C/C(=N\NC(=N)N)c1c[nH]c2ccc(NS(=O)(=O)c3ccccc3)cc12` [Example 7, (Z)-2-{1-[5-[(Phenylsulfonyl)amino]-1H-indol-3yl]ethylidene}hydrazinecarboximidamide Hydrochloride]: the Ki amounted to 1 nM.

`C/C(=N\NC(=N)N)c1cn(C)c2ccc(NS(=O)(=O)c3ccccc3)cc12` [Example 8, (Z)-2-{-1-[1-methyl-5-[(phenylsulfonyl)amino]-1H-indol-3-yl]ethylidene}hydrazinecarboximidamide Hydrochloride]: the Ki came to 2 nM.

Regarding `CC(=NNC(=N)N)c1cn(C)c2ccc(NS(=O)(=O)c3ccc(N)cc3)cc12` [Example 10], the Ki came to 4 nM. The same compound registered an inhibition at 1 µM (test compound dose 1000 nM) of 98.7%.

For `CC(=NNC(=N)N)c1cn(C)c2ccc(NS(=O)(=O)c3sc4ccc(Cl)cc4c3C)cc12` [Example 16], the Ki amounted to 7 nM. Moreover, for the setting “test compound dose 1000 nM”, testing at 1 µM gave an inhibition of 98.7%.

`COc1ccc(S(=O)(=O)Nc2ccc3[nH]cc(C(C)=NNC(=N)N)c3c2)cc1` [Example 19]: the Ki came out at 1 nM. The compound further displayed an inhibition at 1 µM (test compound dose 1000 nM) of 97.4%.

For the compound `COc1ccc(S(=O)(=O)Nc2ccc3c(c2)c(C(C)=NNC(=N)N)cn3C)cc1` [Example 20], the Ki turned out to be 3 nM. For the setting “test compound dose 1000 nM”, this compound displayed an inhibition at 1 µM of 99%.

For the compound `COc1ccc(S(=O)(=O)Nc2ccc3c(c2)c(C(C)=NNC(=N)N)cn3C)cc1OC` [Example 23], the Ki stood at 3 nM. Further, where the note is “test compound dose 1000 nM”, the inhibition at 1 µM worked out at 99.4%.

As to `CC(=NNC(=N)N)c1cn(C)c2ccc(NS(=O)(=O)c3ccccc3Br)cc12` [Example 25], the Ki was determined as 1 nM. At 1 µM the inhibition (test compound dose 1000 nM) was 99%.

With `CC(=NNC(=N)N)c1cn(C)c2ccc(NS(=O)(=O)c3ccc(Cl)cc3)cc12` [Example 29], the Ki is 4 nM. For the setting “test compound dose 1000 nM”, this compound had an inhibition at 1 µM of 98.4%.

In turn, `[H]/N=C(/N)NN=C(C)c1c[nH]c2ccc(NS(=O)(=O)c3ccc(-c4ccccc4)cc3)cc12` [Example 35, (Z)-2-[1-[5-[(4-biphenylsulfonyl)amino]-1H-indol-3-yl]ethylidene]hydrazinecarboximidamide] gave an inhibition at 1 µM (test compound dose 1000 nM) of 96.4%.

The compound `N=C(N)N/N=C/c1c(-c2ccccc2)[nH]c2ccccc12` [Example 42, 2-(2-Phenyl-1H-indol-3-ylmethylene)hydrazinecarboximidamide] displayed an inhibition at 1 µM (test compound dose 1000 nM) of 82.1%.

As to `C/C(=N\NC(=N)N)c1c(-c2ccccc2)[nH]c2ccccc12` [Example 43, 2-[1-(2-Phenyl-1H-indol-3-yl)ethylidene]hydrazine-carboximidamide], at 1 µM the inhibition (test compound dose 1000 nM) was 93.3%.

On to `N=C(N)NN=Cc1c(-c2ccc(Cl)cc2)[nH]c2ccccc12` [Example 44, 2-[2-(4-chlorophenyl)-1H-indol-3-ylmethylene]hydrazinecarboximidamide], for which the Ki came to 18 nM.

Turning to `Clc1ccc(-c2[nH]c3ccccc3c2C=NNC2=NCCCN2)cc1` [Example 45, N-[2-(4-chlorophenyl)-1H-indol-3-ylmethylene]-N′-(1,4,5,6-tetrahydropyrimidin-2-yl)hydrazine], the inhibition at 1 µM (test compound dose 1000 nM) is 68.5%.

On to `CN(N=Cc1c(-c2ccc(Cl)cc2)[nH]c2ccccc12)C1=NCCN1` [Example 46, N′-[2-(4-chlorophenyl)-1H-indol-3-ylmethylene]-N-(4,5-dihydro-1H-imidazol-2-yl)-N-methylhydrazine], for which the Ki was 10 nM. For the same compound, at 1 µM the inhibition (test compound dose 1000 nM) was 96.5%.

For `Clc1ccc(-c2[nH]c3ccccc3c2C=NNC2=NCCN2)cc1` [Example 47, N-[2-(4-chlorophenyl)-1H-indol-3-ylmethylene]-N′-(4,5-dihydro-1H-imidazol-2-yl)hydrazine], the Ki came out at 20.2 nM.

What is called % Inhibition is the drop in the measured response relative to a control, in per cent. As usually defined, the Ki is the equilibrium dissociation constant of an inhibitor or competing ligand from its target. One may read the inhibition as the relative decrease from the control value, in per cent.
